# Experiments:
# [1] = Limited safety evaluation in the beagle dog (observations, serum biochemistry); assay type: in vivo
# Procedure: (§1) Test compounds were tested to evaluate the effect on the beta-amyloid profile in cerebrospinal fluid (CSF) of dogs after a single dose, in combination with pharmacokinetic (PK) follow up and limited safety evaluation. For each of compound 4b, 3c, 7d, or 14, four beagle dogs (2 males, 2 females) were dosed with vehicle (1 ml/kg of an aqueous solution of 20% cyclodextrin) and 12, 8, 4 and 4 beagle dogs (2 males and 2 females per dosage group), were dosed with test compounds as follows:
# CSF was taken in conscious animals directly from the lateral ventricle via a cannula which was screwed in the skull and covered with subcutaneous tissue and skin, before and at 4, 8, 25 and 49 hours after dosing. Eight hours after dosing the animals got access to their regular meal for 30 minutes. […] The CSF samples were used for measurement of Abeta 1-42.
# BACE2 = target: T1, BACE2 (Homo sapiens, UniProt Q9Y5Z0); assay: BACE2 biochemical FRET based assay; details: recombinant BACE2, 450 minutes at room temperature, pH 5.0
# T1 construct: recombinant BACE2 protein in a final concentration of 0.4 μg/ml
# T1 sequence (Q9Y5Z0 63-518): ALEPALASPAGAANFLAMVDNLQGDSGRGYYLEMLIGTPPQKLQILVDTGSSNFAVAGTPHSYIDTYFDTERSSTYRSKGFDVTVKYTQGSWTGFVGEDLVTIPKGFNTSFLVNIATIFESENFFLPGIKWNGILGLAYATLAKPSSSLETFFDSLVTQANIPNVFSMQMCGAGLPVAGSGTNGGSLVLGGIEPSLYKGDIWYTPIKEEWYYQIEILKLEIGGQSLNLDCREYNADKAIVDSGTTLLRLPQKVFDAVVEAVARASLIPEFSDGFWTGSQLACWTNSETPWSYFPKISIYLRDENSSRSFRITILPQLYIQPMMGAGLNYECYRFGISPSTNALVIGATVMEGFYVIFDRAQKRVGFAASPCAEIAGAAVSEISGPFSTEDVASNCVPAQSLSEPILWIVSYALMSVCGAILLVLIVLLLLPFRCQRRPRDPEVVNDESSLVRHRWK
# In short: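 Recombinant BACE2 (0.4 μg/ml) incubated 450 min at room temperature with 10 μM Mca/Dnp Swedish-APP FRET substrate in 50 mM citrate pH 5.0, 0.05% PEG, no DMSO. Fluorescence (ex 320/em 405 nm) difference T450 minus T0; IC50 from least-squares fit of % control versus concentration.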
# [2] = tested on: Abeta 1-42 produced and secreted into the medium of human neuroblastoma SKNBE2 cells; assay: Cellular αLisa assay in SKNBE2 cells; assay type: cell-based; details: human neuroblastoma SKNBE2 cells expressing hAPP695, 18 hours incubation
# In short: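 Human neuroblastoma SKNBE2 cells expressing wild-type hAPP695 were exposed to compound for 18 hours. Secreted Abeta 1-42 in medium was quantified by sandwich αLisa (AbN/25 and cAb42/26 beads; 1 h, excitation 650 nm, emission 615 nm). IC50 came from a least-squares curve fit of % Controlmin against concentration.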
# BACE1 = target: T2, BACE1 (Homo sapiens, UniProt P56817); assay: BACE1 biochemical FRET based assay; details: Method 1: recombinant BACE1 1 μg/ml, 120 min at room temperature, pH 5.0
# T2 construct: recombinant BACE1 protein in a final concentration of 1 μg/ml
# T2 sequence (P56817 46-501): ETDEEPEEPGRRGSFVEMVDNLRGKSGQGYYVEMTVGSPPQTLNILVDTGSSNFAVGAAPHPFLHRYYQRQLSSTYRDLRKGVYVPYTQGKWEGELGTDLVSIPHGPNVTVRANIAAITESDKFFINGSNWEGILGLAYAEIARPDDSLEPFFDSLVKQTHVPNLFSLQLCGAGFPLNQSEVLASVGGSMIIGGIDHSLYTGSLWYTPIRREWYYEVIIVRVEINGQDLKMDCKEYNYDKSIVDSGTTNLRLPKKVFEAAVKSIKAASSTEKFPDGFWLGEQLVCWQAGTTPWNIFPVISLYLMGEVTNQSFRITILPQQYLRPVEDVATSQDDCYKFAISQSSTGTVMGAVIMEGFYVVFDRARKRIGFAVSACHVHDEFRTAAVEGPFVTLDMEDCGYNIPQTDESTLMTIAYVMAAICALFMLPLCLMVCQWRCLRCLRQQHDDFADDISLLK
# In short: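 Recombinant BACE1 (1 μg/ml) incubated 120 min at room temperature with 10 μm Mca/Dnp-quenched 13-mer APP Swedish-mutant peptide in 40 mM citrate pH 5.0, 0.04% PEG, 4% DMSO. Fluorescence (ex 320/em 405 nm) change between T0 and T120 gives activity; IC50 from least-squares curve fit of % control versus concentration.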
# [3] = tested on: Abeta 1-42 in cerebrospinal fluid (CSF); assay: Pharmacology in the beagle dog: beta-amyloid profile in CSF after a single dose; assay type: in vivo; details: for % Mean decrease in Abeta 1-42 at 8 h post dosing compared to own baseline / % Mean decrease in Abeta 1-42 at 25 h post dosing compared to own baseline / % Mean decrease in Abeta 1-42 at 49 h post dosing compared to own baseline: beagle dog CSF; for EC50 Aβ42: beagle dog, CSF Abeta 1-42 after single dose
# Procedure: Pharmacology in the Beagle Dog
# as §1
# CSF was taken in conscious animals directly from the lateral ventricle via a cannula which was screwed in the skull and covered with subcutaneous tissue and skin, before and at 4, 8, 25 and 49 hours after dosing. Eight hours after dosing the animals got access to their regular meal for 30 minutes. Blood was taken for PK follow up (0.5, 1, 2, 4, 8, 25 and 49 hours) and serum samples for biochemistry were taken before and at 8 and 25 h after dosing. The CSF samples were used for measurement of Abeta 1-42.
# [4] = Phase 2 trial, development terminated June 2013; cited from earlier work
# [5] = read-out: Biochemical FRET based assay pIC50 (converted)
smiles,measurement,setting,value
C[C@@]1(C#N)C[C@@H]2[C@@H](C(F)(F)F)OC[C@]2(c2cc(NC(=O)c3cnc(OCF)cn3)ccc2F)N=C1N [7d],ALT liver enzyme increase,"[1]; one female dog, 0.31 mg/kg single dose",6 fold
same,Observations,"[1]; one female dog, 0.31 mg/kg single dose, 49 h post dosing",slight tremors and head shaking
same,Biochemical FRET based assay pIC50,BACE2,7.25
same,Cellular αLisa assay in SKNBE2 cells Abeta 42 pIC50,[2],8.02
same,Biochemical FRET based assay pIC50,BACE1,8.79
same,% Mean decrease in Abeta 1-42 at 8 h post dosing compared to own baseline,[3]; single dose 0.31 mg/kg,42%
same,% Mean decrease in Abeta 1-42 at 25 h post dosing compared to own baseline,[3]; single dose 0.31 mg/kg,NR (NR means % decrease < 20)
CC(F)(F)[C@H]1OC[C@]2(c3cc(NC(=O)c4cnc(OCF)cn4)ccc3F)N=C(N)[C@](C)(C#N)C[C@H]12 [compound 14],Observations,"[1]; one dog, 0.63 mg/kg single dose, 2 h post dosing",emesis
same,IC50,BACE2; [5],81.3 nM
same,IC50,"[2]; Homo sapiens, SKNBE2, 18 h, read-out: Cellular αLisa assay in SKNBE2 cells Abeta 42 pIC50 (converted)",6.92 nM
same,IC50,BACE1; [5],2.24 nM
same,% Mean decrease in Abeta 1-42 at 8 h post dosing compared to own baseline,[3]; single dose 0.63 mg/kg,32%
same,% Mean decrease in Abeta 1-42 at 25 h post dosing compared to own baseline,[3]; single dose 0.63 mg/kg,NR (NR means % decrease < 20)
same,% Mean decrease in Abeta 1-42 at 49 h post dosing compared to own baseline,[3]; single dose 0.63 mg/kg,NR (NR means % decrease < 20)
NC1=N[C@@]2(c3cc(NC(=O)c4ccc(F)cn4)ccc3F)COC[C@H]2CS1 [LY2886721],liver abnormalities (patients affected),[4],four out of 45
C[C@H]1OC[C@]2(c3cc(NC(=O)c4ccc(C#N)cn4)ccc3F)N=C(N)[C@](C)(C#N)C[C@H]12 [4b],Observations,"[1]; one female dog dosed at 1.25 mg/kg, single dose, 8 h post dosing",slight diarrhea
same,Biochemical FRET based assay pIC50,BACE2,7.84
same,Cellular αLisa assay in SKNBE2 cells Abeta 42 pIC50,[2],8.9
same,Biochemical FRET based assay pIC50,BACE1,8.73
same,% Mean decrease in Abeta 1-42 at 8 h post dosing compared to own baseline,[3]; single dose 0.16 mg/kg,42%
same,% Mean decrease in Abeta 1-42 at 25 h post dosing compared to own baseline,[3]; single dose 0.16 mg/kg,21%
same,% Mean decrease in Abeta 1-42 at 49 h post dosing compared to own baseline,[3]; single dose 0.16 mg/kg,NR (NR means % decrease < 20)
same,% Mean decrease in Abeta 1-42 at 8 h post dosing compared to own baseline,[3]; single dose 0.31 mg/kg,54%
same,% Mean decrease in Abeta 1-42 at 25 h post dosing compared to own baseline,[3]; single dose 0.31 mg/kg,53%
same,% Mean decrease in Abeta 1-42 at 49 h post dosing compared to own baseline,[3]; single dose 0.31 mg/kg,NR (NR means % decrease < 20)
same,% Mean decrease in Abeta 1-42 at 8 h post dosing compared to own baseline,[3]; single dose 1.25 mg/kg,80%
same,% Mean decrease in Abeta 1-42 at 25 h post dosing compared to own baseline,[3]; single dose 1.25 mg/kg,71%
same,% Mean decrease in Abeta 1-42 at 49 h post dosing compared to own baseline,[3]; single dose 1.25 mg/kg,34%
same,EC50 Aβ42,[3],24 ng/mL
C[C@@]1(C#N)C[C@@H]2[C@@H](C(F)(F)F)OC[C@]2(c2cc(NC(=O)c3ccc(C#N)cn3)ccc2F)N=C1N [3c],Observations,"[1]; one female dog dosed at 0.08 mg/kg, single dose, 8 h post dosing",moderate diarrhea
same,Biochemical FRET based assay pIC50,BACE2,7.97
same,Cellular αLisa assay in SKNBE2 cells Abeta 42 pIC50,[2],8.52
same,Biochemical FRET based assay pIC50,BACE1,9.06
same,% Mean decrease in Abeta 1-42 at 8 h post dosing compared to own baseline,[3]; single dose 0.08 mg/kg,29%
same,% Mean decrease in Abeta 1-42 at 25 h post dosing compared to own baseline,[3]; single dose 0.08 mg/kg,27%
same,% Mean decrease in Abeta 1-42 at 49 h post dosing compared to own baseline,[3]; single dose 0.08 mg/kg,NR (NR means % decrease < 20)
same,% Mean decrease in Abeta 1-42 at 8 h post dosing compared to own baseline,[3]; single dose 0.31 mg/kg,64%
same,% Mean decrease in Abeta 1-42 at 25 h post dosing compared to own baseline,[3]; single dose 0.31 mg/kg,62%
same,% Mean decrease in Abeta 1-42 at 49 h post dosing compared to own baseline,[3]; single dose 0.31 mg/kg,50%
same,EC50 Aβ42,[3],19 ng/mL

# Source: patent US20200062773A1, “4,4a,5,7-TETRAHYDRO-3H-FURO[3,4-b]PYRIDINYL COMPOUNDS” (Janssen Pharmaceutlca NV, priority 2016, published 2020)
